Data taken from US8212038B2, “Methods and compositions for controlling ectoparasites” (HatchTech Pty Ltd., priority 2003, dated 2012).

What was measured:
[1] = test system: lice eggs; experiment: Time course in vitro lice egg hatching assay; type: in vivo, Pediculus humanus humanus
[2] = test system: Plutella xylostella eggs (Waite strain); experiment: Reversal of ovicidal effect by FeSO4 on Plutella xylostella eggs; type: in vivo
Experimental: (§1) Within 24 hours of collection the following experimental design was chosen. Batches of eggs were exposed to 10 mM 6,69-dimethyl-2,29-dipyridyl for 2 seconds while additional batches of eggs were exposed to the solvent only (Methanol) for 2 seconds. All batches of eggs were allowed to air dry for 20 minutes at room temperature. The eggs were then given a 2 second exposure to FeSO4 at either 10, 5 or 1 mM, air dried and put in the incubator at 24° C. and allowed to hatch over the next 6 days. In addition, a positive control of 10 mM 6,69-dimethyl-2,29-dipyridyl was set up in which eggs were exposed to this compound for 2 seconds, air dried and placed in the incubator.
as §1, with “10 mM 5,59-dimethyl-2,29-dipyridyl for 2” for “10 mM 6,69-dimethyl-2,29-dipyridyl for 2”, “FeSO4 at 10, 5” for “FeSO4 at either 10, 5”, “put in an incubator at” for “put in the incubator at”, “of 10 mM, 5,59-dimethyl-2,29-dipyridyl was set” for “of 10 mM 6,69-dimethyl-2,29-dipyridyl was set”

[3] = test system: B. ovis eggs; experiment: Egg hatching in Bovicola ovis; type: in vivo; conditions: 10 mM
Experimental: B. ovis eggs were collected from the wool of sheep that were infested with this parasite. The eggs were collected using forceps and with the aid of a dissecting microscope and placed in 24 well tissue culture plates in duplicate lots of 10 eggs per replicate. The eggs were then exposed to either methanol alone (control) or the test compounds for either 10 minutes or 1 minute before being removed from the wells and placed into individual glass vials containing a diet at the base of the tube. The tubes were placed in plastic containers containing a salt solution (to keep humidity constant at 68%) and the containers maintained at a temperature 32° C. The eggs were monitored for hatching over the following 12 days and % hatch inhibition determined in comparison to the controls.

[4] = test system: Plutella xylostella eggs (Waite strain); experiment: Egg hatch of Plutella xylostella after dipping in inhibitor
Experimental: The egg masses were then placed in a humid box at 25 degrees until egg hatch. Control eggs were exposed to absolute methanol as described above. At day 6 post laying the eggs were assessed from the different treatments and the percentage of egg hatch determined relative to the control as shown in Table 9.
Batches of Plutella eggs that were laid on either fine cloth or parafilm were dipped in a specific inhibitor solution for between 2-10 seconds, the excess solution was drained by blotting with dry tissue paper. The egg masses were then placed in a humid box at 25 degrees until egg hatch. Control eggs were exposed to absolute methanol as described above or not treated.
The egg masses were then placed in a humid box at 25 degrees until egg hatch. Control eggs were exposed to absolute ethanol as described above. On day 6 post laying the eggs were assessed from the different treatments and the percentage of egg hatch determined relative to the control.

[5] = test system: Helicoverpa armigera eggs (Tatura×Toowoomba strains); experiment: Egg hatch of Helicoverpa armigera after exposure to inhibitor; conditions: for % Inhibition of egg hatch relative to control / Number hatched / Number unhatched / % Inhibition of egg hatch relative to the control: day 6 post laying
Experimental: Several hundred Helicoverpa armigera eggs (Tatura×Toowoomba strains) were collected, that had been laid on fine mesh cloth over a 24 hour period.
Batches of Helicoverpa eggs were exposed to a specific inhibitor solution for between 2-10 seconds the excess solution drained by blotting with dry tissue paper. The egg masses were then placed in a humid box at 25 degrees until egg hatch. Control eggs were exposed to absolute methanol as described above.

[6] = per replicate, […], concentration not given
[7] = 10 mM followed by 2 second exposure to 1 mM FeSO4
[8] = 10 mM followed by 2 second exposure to 5 mM FeSO4
[9] = 10 mM followed by 2 second exposure to 10 mM FeSO4
[10] = 10 mM followed by 2 second exposure to MEOH
[11] = 10 mM, 2 seconds, (+ve) control, no second exposure
[12] = 10 and 1 mM, listed as 6,6′ dimethyl-2,2′ dipyridyl
[13] = Example 12, 0.001 mM, day 6 post laying
[14] = Example 12, 0.01 mM, day 6 post laying
[15] = Example 12, 0.1 mM, day 6 post laying
[16] = Example 12, 1 mM, day 6 post laying
[17] = Example 12, 10 mM, day 6 post laying
[18] = Example 13, eggs laid on cloth, 0.01 mM
[19] = Example 13, eggs laid on cloth, 0.1 mM
[20] = Example 13, eggs laid on cloth, 1 mM
[21] = Example 13, eggs laid on cloth, 10 mM
[22] = Example 13, eggs laid on parafilm, 0.01 mM
[23] = Example 13, eggs laid on parafilm, 0.1 mM
[24] = Example 13, eggs laid on parafilm, 1 mM
[25] = Example 13, eggs laid on parafilm, 10 mM

Cc1cccc(-c2cccc(C)n2)n1 [6,6′-dimethyl-2,2′-dipyridyl] was tested, and the “inhibition of lice egg hatching (in words)” value ([1]; in vivo) was “completely inhibited”, the “H (number of eggs successfully hatched)” value [1, 6] was 0 and the “Ph (number of eggs partly hatched)” value [1, 6] was 0. For the same compound, the “% Inhibition” value [2, 7] was 3%, the Number hatched [2, 7] was 33 and the Number unhatched [2, 7] was 1. The “% Inhibition” value [2, 8] was 0%, the Number hatched [2, 8] was 25 and the Number unhatched [2, 8] was 0. For the same compound, the “% Inhibition” value [2, 9] was 38%, the Number hatched [2, 9] was 12 and the Number unhatched [2, 9] was 19. For the same compound, the “% Inhibition” value [2, 10] was 90%, the Number hatched [2, 10] was 3 and the Number unhatched [2, 10] was 28. For the same compound, the “effect of added Fe (FeSO4) on the ovicidal effect (in words)” value ([2]; 10 mM inhibitor, then FeSO4 10, 5 or 1 mM) was “able to reverse the effects”, the “% Inhibition” value [2, 11] was 100% and the Number hatched [2, 11] was 0. For the same compound, the Number unhatched [2, 11] was 44, the “inhibition of egg hatching (in words)” value ([3]; 10 or 1 minute exposure) was “completely inhibited” and the “% Inhibition” value ([3]; 1 minute exposure) was 100%. The “% Inhibition” value ([3]; 10 minute exposure) was 100%, the “inhibition of egg hatching in Plutella xylostella (in words)” value ([4]; 0.1 and 0.01 mM) was “no observable effects on egg hatching” and the “inhibition of egg hatching in Plutella xylostella (in words)” value [4, 12] was “strong ovicidal effects”. For the same compound, the “inhibition of egg hatching in Plutella xylostella (in words)” value ([4]; 10 and 1 mM, listed as 6,6′-dimethyl-2,2′ dipyridyl) was “effective at inhibiting egg hatching”, the “% Inhibition of egg hatch relative to control” value [4, 13] was 0% and the Number hatched [4, 13] was 11. The Number unhatched [4, 13] was 6, the “% Inhibition of egg hatch relative to control” value [4, 14] was 0% and the Number hatched [4, 14] was 13. The Number unhatched [4, 14] was 7, the “% Inhibition of egg hatch relative to control” value [4, 15] was 0% and the Number hatched [4, 15] was 23. The Number unhatched [4, 15] was 29, the “% Inhibition of egg hatch relative to control” value [4, 16] was 100% and the Number hatched [4, 16] was 0. For the same compound, the Number unhatched [4, 16] was 26, the “% Inhibition of egg hatch relative to control” value [4, 17] was 100% and the Number hatched [4, 17] was 0. The Number unhatched [4, 17] was 79, the “% Inhibition of egg hatch relative to controls” value [4, 18] was 12% and the Number hatched [4, 18] was 23. The Number unhatched [4, 18] was 4, the “% Inhibition of egg hatch relative to controls” value [4, 19] was 0% and the Number hatched [4, 19] was 49. For the same compound, the Number unhatched [4, 19] was 49, the “% Inhibition of egg hatch relative to controls” value [4, 20] was 100% and the Number hatched [4, 20] was 0. The Number unhatched [4, 20] was 23, the “% Inhibition of egg hatch relative to controls” value [4, 21] was 100% and the Number hatched [4, 21] was 0. For the same compound, the Number unhatched [4, 21] was 53, the “% Inhibition of egg hatch relative to controls” value [4, 22] was 0% and the Number hatched [4, 22] was 92. The Number unhatched [4, 22] was 4, the “% Inhibition of egg hatch relative to controls” value [4, 23] was 7% and the Number hatched [4, 23] was 65. The Number unhatched [4, 23] was 70, the “% Inhibition of egg hatch relative to controls” value [4, 24] was 100% and the Number hatched [4, 24] was 0. The Number unhatched [4, 24] was 63, the “% Inhibition of egg hatch relative to controls” value [4, 25] was 100% and the Number hatched [4, 25] was 0. For the same compound, the “inhibition of egg hatching of Helicoverpa armigera (in words)” value ([5]; 0.1 mM) was “no inhibition of egg hatching”, the “inhibition of egg hatching of Helicoverpa armigera (in words)” value ([5]; 10 and 1 mM) was “significantly inhibit the egg hatching” and the “inhibition of egg hatching of Helicoverpa armigera (in words)” value [5, 12] was “significantly inhibit egg hatching”. The “% Inhibition of egg hatch relative to control” value ([5]; Example 14, 0.001 mM) was 0%, the “% Inhibition of egg hatch relative to control” value ([5]; Example 14, 0.01 mM) was 0% and the “% Inhibition of egg hatch relative to control” value ([5]; Example 14, 0.1 mM) was 0%. For the same compound, the “% Inhibition of egg hatch relative to control” value ([5]; Example 14, 1 mM) was 97%, the Number hatched ([5]; Example 14, 1 mM) was 4 and the Number unhatched ([5]; Example 14, 1 mM) was 140. The “% Inhibition of egg hatch relative to control” value ([5]; Example 14, 10 mM) was 94%, the Number hatched ([5]; Example 14, 10 mM) was 7 and the Number unhatched ([5]; Example 14, 10 mM) was 98. For the same compound, the “% Inhibition of egg hatch relative to the control” value ([5]; Example 15, 0.1 mM) was 0%, the Number hatched ([5]; Example 15, 0.1 mM) was 70 and the Number unhatched ([5]; Example 15, 0.1 mM) was 0. The “% Inhibition of egg hatch relative to the control” value ([5]; Example 15, 1 mM) was 97%, the Number hatched ([5]; Example 15, 1 mM) was 2 and the Number unhatched ([5]; Example 15, 1 mM) was 61. The “% Inhibition of egg hatch relative to the control” value ([5]; Example 15, 10 mM) was 94%, the Number hatched ([5]; Example 15, 10 mM) was 3 and the Number unhatched ([5]; Example 15, 10 mM) was 48. For the same compound, the “inhibition of egg hatching of Helicoverpa armigera (in words)” value ([5]; concentrations below 1 mM) was “No inhibition”.
With c1ccc(-c2ccc3ccccc3n2)nc1 [2-(2-pyridinyl)quinoline] the “inhibition of egg hatching in Plutella xylostella (in words)” value ([4]; 10 mM) was “able to inhibit egg hatching”.
With CC(C)C[C@H](CC(=O)O)C(=O)N[C@@H](Cc1c[nH]c2ccccc12)C(=O)N[C@@H](C)c1ccccc1 [GM 1489, reference compound] the “% Inhibition of lice egg hatching (maximum over the time-course)” value ([1]; concentration not given) was 0%.
For O=C(O)CN(CCOCCOCCN(CC(=O)O)CC(=O)O)CC(=O)O [EGTA, reference compound], the “effect on egg hatching (in words)” value ([1]; 10 mM, results not shown) was “did not appear to have an effect on egg hatching”.
